From ChEMBL document CHEMBL3991601, “The target landscape of clinical kinase drugs” (Science, 2017)
Calls of active or inactive are those of the source. Cut-off read from the data, not from the text of the source, for most assays here: actives have a measured Kd and inactives only a lower limit.

Tests used:
[1] = molecular target: Fibroblast growth factor receptor 1 (Homo sapiens, UniProt P11362)
[2] = molecular target: Mitogen-activated protein kinase 3 (Homo sapiens, UniProt P27361)
[3] = molecular target: Calcium/calmodulin-dependent protein kinase kinase 2 (Homo sapiens, UniProt Q96RR4)
[4] = molecular target: Mitogen-activated protein kinase 7 (Homo sapiens, UniProt Q13164)
[5] = molecular target: Chromodomain-helicase-DNA-binding protein 4 (Homo sapiens, UniProt Q14839)
[6] = molecular target: T1, Serine/threonine-protein kinase A-Raf (Homo sapiens, UniProt P10398)
T1 sequence (P10398 whole entry): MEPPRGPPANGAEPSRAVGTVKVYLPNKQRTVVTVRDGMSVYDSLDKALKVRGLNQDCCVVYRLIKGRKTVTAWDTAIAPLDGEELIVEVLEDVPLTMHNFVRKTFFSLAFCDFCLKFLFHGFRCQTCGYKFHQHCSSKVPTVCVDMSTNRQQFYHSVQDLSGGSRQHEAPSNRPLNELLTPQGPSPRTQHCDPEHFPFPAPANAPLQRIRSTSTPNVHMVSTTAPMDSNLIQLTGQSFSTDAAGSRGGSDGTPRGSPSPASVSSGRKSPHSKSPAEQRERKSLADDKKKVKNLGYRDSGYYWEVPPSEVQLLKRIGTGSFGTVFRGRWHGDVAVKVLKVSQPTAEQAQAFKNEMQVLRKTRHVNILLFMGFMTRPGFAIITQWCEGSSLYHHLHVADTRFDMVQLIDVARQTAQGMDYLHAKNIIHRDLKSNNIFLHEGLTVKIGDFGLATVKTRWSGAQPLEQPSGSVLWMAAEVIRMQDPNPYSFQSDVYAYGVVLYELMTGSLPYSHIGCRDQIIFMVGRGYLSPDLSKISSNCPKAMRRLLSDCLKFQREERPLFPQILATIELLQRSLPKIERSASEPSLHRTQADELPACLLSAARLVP

[7] = molecular target: T2, Serine/threonine-protein kinase Nek2 (Homo sapiens, UniProt P51955)
T2 sequence (P51955 whole entry): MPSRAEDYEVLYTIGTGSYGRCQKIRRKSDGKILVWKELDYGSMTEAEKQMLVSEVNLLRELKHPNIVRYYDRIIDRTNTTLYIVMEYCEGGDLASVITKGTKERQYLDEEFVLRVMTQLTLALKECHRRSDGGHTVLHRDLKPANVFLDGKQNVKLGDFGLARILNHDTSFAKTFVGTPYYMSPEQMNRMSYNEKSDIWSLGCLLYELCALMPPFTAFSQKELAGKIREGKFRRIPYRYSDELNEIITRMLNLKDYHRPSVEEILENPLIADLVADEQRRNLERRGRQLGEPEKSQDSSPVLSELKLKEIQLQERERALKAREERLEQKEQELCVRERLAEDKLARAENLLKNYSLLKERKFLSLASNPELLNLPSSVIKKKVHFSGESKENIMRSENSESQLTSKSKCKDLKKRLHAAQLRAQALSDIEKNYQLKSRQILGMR

[8] = molecular target: Mitogen-activated protein kinase kinase kinase 1 (Homo sapiens, UniProt Q13233)
[9] = molecular target: T3, EKC/KEOPS complex subunit TP53RK (Homo sapiens, UniProt Q96S44)
T3 sequence (Q96S44 whole entry): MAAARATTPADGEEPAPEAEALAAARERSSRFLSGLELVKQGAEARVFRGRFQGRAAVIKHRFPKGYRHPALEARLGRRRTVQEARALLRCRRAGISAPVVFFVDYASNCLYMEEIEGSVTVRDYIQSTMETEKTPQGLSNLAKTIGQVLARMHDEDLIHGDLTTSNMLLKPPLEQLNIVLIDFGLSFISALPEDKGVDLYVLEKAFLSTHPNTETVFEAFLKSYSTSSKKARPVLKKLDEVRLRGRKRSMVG

[10] = molecular target: Dual specificity mitogen-activated protein kinase kinase 2 (Homo sapiens, UniProt P36507)
[11] = molecular target: Macrophage-stimulating protein receptor (Homo sapiens, UniProt Q04912)
[12] = molecular target: cAMP-dependent protein kinase catalytic subunit alpha (Homo sapiens, UniProt P17612)
[13] = molecular target: Bone morphogenetic protein receptor type-1B (Homo sapiens, UniProt O00238)
Ephrin type-B receptor 3 = molecular target: T4, Ephrin type-B receptor 3 (Homo sapiens, UniProt P54753)
T4 sequence (P54753 whole entry): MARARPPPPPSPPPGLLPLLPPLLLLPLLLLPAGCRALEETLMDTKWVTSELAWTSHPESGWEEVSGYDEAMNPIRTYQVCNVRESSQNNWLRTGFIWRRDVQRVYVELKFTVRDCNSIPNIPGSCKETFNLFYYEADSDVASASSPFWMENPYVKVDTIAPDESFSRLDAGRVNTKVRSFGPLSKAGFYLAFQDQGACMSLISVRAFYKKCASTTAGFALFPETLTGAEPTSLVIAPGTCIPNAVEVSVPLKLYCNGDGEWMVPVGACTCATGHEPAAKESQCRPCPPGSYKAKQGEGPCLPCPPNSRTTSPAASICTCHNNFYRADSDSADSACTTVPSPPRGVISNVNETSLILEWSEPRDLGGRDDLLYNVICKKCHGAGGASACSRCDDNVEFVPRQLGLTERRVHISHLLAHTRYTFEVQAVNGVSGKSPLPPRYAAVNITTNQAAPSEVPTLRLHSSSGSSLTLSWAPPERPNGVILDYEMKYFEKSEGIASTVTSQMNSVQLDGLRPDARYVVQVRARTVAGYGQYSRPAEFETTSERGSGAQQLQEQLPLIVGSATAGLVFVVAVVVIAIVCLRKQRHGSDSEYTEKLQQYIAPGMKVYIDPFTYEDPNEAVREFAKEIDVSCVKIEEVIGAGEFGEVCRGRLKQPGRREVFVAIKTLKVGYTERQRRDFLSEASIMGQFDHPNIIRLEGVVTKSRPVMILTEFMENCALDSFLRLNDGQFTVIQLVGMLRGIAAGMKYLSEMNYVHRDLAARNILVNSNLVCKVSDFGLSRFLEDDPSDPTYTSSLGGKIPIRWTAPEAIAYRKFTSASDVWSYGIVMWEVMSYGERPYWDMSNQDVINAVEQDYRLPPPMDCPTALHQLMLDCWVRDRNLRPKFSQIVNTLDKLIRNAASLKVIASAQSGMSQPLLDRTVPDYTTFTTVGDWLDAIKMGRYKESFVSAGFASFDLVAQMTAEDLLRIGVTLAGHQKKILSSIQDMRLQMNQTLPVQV

[14] = molecular target: Casein kinase I isoform alpha (Homo sapiens, UniProt P48729)
Note: in the data inactive means no Kd found up to 30 µM.

Sequence of Bone morphogenetic protein receptor type-1B (O00238 whole entry): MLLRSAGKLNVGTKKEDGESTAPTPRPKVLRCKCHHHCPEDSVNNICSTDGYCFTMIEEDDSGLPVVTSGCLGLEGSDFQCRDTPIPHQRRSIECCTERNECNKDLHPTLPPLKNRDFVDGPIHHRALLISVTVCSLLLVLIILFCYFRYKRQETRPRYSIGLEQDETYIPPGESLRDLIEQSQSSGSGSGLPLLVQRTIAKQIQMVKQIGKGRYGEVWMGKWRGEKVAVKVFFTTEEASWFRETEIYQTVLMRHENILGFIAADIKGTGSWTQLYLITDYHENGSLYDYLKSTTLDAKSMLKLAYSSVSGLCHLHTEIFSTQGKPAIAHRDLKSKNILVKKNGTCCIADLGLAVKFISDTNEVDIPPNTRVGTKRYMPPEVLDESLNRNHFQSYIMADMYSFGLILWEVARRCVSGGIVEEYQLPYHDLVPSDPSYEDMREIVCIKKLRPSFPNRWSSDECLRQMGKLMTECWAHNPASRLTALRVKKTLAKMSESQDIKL
Sequence of Mitogen-activated protein kinase kinase kinase 1 (Q13233 whole entry): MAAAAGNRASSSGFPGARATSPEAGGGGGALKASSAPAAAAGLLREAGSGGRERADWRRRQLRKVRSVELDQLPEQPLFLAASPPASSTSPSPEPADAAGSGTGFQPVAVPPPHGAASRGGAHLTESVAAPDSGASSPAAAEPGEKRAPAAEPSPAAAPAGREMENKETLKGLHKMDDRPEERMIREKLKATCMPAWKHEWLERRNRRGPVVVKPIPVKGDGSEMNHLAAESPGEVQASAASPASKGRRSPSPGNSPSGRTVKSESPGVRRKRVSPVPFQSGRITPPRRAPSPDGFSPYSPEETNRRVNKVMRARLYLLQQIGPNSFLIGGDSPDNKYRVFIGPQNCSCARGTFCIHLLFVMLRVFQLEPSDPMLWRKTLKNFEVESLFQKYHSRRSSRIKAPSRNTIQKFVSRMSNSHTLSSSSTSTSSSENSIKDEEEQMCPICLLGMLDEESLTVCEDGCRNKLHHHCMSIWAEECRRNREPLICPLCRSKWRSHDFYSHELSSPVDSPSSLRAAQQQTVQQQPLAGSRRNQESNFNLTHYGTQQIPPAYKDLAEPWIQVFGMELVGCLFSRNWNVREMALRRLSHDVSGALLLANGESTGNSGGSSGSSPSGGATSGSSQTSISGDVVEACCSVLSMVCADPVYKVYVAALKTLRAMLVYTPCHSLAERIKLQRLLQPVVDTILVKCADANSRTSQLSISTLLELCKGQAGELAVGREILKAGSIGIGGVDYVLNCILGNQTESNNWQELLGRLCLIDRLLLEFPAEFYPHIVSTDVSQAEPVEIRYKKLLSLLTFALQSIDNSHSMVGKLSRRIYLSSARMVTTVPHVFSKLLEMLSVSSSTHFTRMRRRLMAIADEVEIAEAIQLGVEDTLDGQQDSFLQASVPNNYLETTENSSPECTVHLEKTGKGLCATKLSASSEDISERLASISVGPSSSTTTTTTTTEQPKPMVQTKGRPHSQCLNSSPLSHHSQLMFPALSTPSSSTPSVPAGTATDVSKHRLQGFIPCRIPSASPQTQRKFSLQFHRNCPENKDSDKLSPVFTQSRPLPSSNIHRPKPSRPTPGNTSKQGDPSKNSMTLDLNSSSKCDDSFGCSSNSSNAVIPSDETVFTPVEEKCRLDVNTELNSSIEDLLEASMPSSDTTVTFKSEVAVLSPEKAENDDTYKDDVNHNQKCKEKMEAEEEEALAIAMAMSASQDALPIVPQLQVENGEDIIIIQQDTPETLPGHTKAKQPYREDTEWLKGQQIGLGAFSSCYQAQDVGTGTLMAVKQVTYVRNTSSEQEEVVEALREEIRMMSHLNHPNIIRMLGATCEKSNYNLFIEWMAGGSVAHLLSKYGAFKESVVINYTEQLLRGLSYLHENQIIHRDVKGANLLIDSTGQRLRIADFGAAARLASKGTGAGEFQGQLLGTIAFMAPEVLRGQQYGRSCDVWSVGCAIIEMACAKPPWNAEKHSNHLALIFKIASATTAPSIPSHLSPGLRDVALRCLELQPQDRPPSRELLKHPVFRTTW
Sequence of Dual specificity mitogen-activated protein kinase kinase 2 (P36507 whole entry): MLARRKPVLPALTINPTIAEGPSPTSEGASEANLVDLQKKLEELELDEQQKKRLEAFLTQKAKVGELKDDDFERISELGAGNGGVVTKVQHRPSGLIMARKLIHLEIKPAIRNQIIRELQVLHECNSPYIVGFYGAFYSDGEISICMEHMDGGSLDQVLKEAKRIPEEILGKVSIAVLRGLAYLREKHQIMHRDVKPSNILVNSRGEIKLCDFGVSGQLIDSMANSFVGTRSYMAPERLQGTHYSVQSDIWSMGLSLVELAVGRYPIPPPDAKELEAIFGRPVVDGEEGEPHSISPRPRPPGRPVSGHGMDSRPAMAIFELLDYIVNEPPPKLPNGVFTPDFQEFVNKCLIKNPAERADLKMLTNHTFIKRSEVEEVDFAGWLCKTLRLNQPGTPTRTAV
Sequence of Fibroblast growth factor receptor 1 (P11362 whole entry): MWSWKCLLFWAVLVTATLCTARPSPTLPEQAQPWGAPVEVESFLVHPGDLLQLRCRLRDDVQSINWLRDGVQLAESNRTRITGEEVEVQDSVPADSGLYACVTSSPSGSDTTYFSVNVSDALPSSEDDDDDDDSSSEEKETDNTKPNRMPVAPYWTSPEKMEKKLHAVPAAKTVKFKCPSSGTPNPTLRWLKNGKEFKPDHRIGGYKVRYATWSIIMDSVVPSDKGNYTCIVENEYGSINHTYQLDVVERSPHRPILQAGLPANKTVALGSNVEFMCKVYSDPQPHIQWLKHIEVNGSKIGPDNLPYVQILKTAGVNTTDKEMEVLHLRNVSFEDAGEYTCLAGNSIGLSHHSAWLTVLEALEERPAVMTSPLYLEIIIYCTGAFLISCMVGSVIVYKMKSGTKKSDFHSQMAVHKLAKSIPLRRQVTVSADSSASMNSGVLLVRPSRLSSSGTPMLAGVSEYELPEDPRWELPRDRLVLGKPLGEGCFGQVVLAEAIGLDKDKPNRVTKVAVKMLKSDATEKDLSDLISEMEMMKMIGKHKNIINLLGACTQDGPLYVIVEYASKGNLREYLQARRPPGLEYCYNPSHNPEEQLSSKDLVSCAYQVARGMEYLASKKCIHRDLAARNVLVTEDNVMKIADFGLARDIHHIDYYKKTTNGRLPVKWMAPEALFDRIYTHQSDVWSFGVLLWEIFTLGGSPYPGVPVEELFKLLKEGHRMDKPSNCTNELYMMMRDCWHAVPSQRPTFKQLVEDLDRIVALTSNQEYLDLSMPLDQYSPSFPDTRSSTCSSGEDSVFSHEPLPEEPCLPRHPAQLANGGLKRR
Sequence of Mitogen-activated protein kinase 7 (Q13164 whole entry): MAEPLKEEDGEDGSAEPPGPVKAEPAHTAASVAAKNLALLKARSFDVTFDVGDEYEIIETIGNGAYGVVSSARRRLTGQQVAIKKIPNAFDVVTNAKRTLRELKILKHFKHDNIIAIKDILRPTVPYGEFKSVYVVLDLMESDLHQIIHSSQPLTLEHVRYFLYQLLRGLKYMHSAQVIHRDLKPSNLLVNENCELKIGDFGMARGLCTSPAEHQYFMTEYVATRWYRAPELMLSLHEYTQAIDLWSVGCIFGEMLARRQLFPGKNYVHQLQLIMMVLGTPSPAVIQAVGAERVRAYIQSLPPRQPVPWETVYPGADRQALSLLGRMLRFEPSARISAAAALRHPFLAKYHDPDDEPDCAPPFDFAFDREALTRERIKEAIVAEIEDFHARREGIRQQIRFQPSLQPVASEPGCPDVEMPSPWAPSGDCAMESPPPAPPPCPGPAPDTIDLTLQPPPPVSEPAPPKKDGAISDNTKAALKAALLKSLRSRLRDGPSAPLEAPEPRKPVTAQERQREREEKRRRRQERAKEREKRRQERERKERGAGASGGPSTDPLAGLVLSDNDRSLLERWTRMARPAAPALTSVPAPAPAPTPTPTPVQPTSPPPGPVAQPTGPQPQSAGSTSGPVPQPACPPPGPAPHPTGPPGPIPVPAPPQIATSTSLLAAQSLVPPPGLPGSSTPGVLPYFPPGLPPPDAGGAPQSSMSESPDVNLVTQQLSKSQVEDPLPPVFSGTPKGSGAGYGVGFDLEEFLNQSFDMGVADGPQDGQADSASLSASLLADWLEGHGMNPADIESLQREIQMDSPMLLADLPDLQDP
Sequence of Casein kinase I isoform alpha (P48729 whole entry, canonical isoform): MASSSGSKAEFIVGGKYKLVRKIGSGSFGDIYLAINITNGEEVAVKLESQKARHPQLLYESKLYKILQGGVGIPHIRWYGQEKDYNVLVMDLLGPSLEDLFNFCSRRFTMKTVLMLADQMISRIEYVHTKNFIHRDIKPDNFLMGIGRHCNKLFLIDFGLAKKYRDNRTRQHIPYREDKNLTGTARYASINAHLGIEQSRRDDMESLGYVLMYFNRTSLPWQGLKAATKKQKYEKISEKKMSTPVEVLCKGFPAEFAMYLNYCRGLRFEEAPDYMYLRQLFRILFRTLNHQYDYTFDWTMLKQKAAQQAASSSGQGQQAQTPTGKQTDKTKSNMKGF
Sequence of Mitogen-activated protein kinase 3 (P27361 whole entry): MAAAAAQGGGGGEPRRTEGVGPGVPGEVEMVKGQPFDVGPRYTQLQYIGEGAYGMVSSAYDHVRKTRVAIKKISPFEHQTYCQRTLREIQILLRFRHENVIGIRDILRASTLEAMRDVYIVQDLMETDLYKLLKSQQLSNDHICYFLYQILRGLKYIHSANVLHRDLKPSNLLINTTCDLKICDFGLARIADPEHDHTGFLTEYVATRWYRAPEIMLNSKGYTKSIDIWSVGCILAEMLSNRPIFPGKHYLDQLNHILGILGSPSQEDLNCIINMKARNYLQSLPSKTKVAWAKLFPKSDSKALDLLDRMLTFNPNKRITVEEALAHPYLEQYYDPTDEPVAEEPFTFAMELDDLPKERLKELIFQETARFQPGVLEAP

SMILES | Kd [1] | Kd [2] | Kd [3] | Kd [4] | Kd [5] | Kd [6] | Kd [7] | Kd [8] | Kd [9] | Kd [10] | Kd [11] | Kd [12] | Kd [13] | Kd (Ephrin type-B receptor 3) | Kd [14]
CC(C)Nc1cc(-c2c[nH]c(C(=O)N[C@H](CO)c3cccc(Cl)c3)c2)c(Cl)cn1 [ULIXERTINIB] | > 30 µM (inactive) | 0.16 µM (active) | > 30 µM (inactive) | > 30 µM (inactive) | > 30 µM (inactive) | > 30 µM (inactive) | > 30 µM (inactive) | > 30 µM (inactive) | > 30 µM (inactive) | > 30 µM (inactive) | > 30 µM (inactive) | > 30 µM (inactive) | > 30 µM (inactive) | > 30 µM (inactive) | > 30 µM (inactive)
CC[C@@H]1C(=O)N(C)c2cnc(Nc3ccc(C(=O)N[C@H]4CC[C@H](N5CCN(CC6CC6)CC5)CC4)cc3OC)nc2N1C(C)C [VOLASERTIB] | > 30 µM (inactive) | > 30 µM (inactive) | 0.195 µM (active) | > 30 µM (inactive) | > 30 µM (inactive) | > 30 µM (inactive) | > 30 µM (inactive) | > 30 µM (inactive) | > 30 µM (inactive) | > 30 µM (inactive) | > 30 µM (inactive) | > 30 µM (inactive) | > 30 µM (inactive) | > 30 µM (inactive) | > 30 µM (inactive)
CN1CC[C@@H](c2c(O)cc(O)c3c(=O)cc(-c4ccccc4Cl)oc23)[C@@H]1CO | > 30 µM (inactive) | > 30 µM (inactive) | > 30 µM (inactive) | > 30 µM (inactive) | > 30 µM (inactive) | > 30 µM (inactive) | > 30 µM (inactive) | > 30 µM (inactive) | > 30 µM (inactive) | > 30 µM (inactive) | > 30 µM (inactive) | > 30 µM (inactive) | > 30 µM (inactive) | > 30 µM (inactive) | > 30 µM (inactive)
Cc1ccc(S(=O)(=O)Nc2nc3ccccc3nc2Nc2ccc3nsnc3c2)cc1 | > 30 µM (inactive) | > 30 µM (inactive) | > 30 µM (inactive) | > 30 µM (inactive) | > 30 µM (inactive) | > 30 µM (inactive) | > 30 µM (inactive) | > 30 µM (inactive) | > 30 µM (inactive) | > 30 µM (inactive) | > 30 µM (inactive) | > 30 µM (inactive) | > 30 µM (inactive) | > 30 µM (inactive) | > 30 µM (inactive)
COc1cc2nccc(Oc3ccc(NC(=O)NC4CC4)c(Cl)c3)c2cc1C(N)=O [LENVATINIB] | > 30 µM (inactive) | > 30 µM (inactive) | > 30 µM (inactive) | > 30 µM (inactive) | > 30 µM (inactive) | > 30 µM (inactive) | > 30 µM (inactive) | > 30 µM (inactive) | > 30 µM (inactive) | > 30 µM (inactive) | > 30 µM (inactive) | > 30 µM (inactive) | > 30 µM (inactive) | > 30 µM (inactive) | > 30 µM (inactive)
COC(=O)N[C@@H](C)CNc1nccc(-c2cn(C(C)C)nc2-c2cc(Cl)cc(NS(C)(=O)=O)c2F)n1 [ENCORAFENIB] | > 30 µM (inactive) | > 30 µM (inactive) | > 30 µM (inactive) | > 30 µM (inactive) | > 30 µM (inactive) | > 30 µM (inactive) | > 30 µM (inactive) | > 30 µM (inactive) | > 30 µM (inactive) | > 30 µM (inactive) | > 30 µM (inactive) | > 30 µM (inactive) | > 30 µM (inactive) | > 30 µM (inactive) | 3.33 µM (active)
COCCNCc1ccc(-c2cc3nccc(Oc4ccc(NC(=S)NC(=O)Cc5ccc(F)cc5)cc4F)c3s2)nc1 [GLESATINIB] | > 30 µM (inactive) | > 30 µM (inactive) | > 30 µM (inactive) | > 30 µM (inactive) | > 30 µM (inactive) | > 30 µM (inactive) | > 30 µM (inactive) | > 30 µM (inactive) | > 30 µM (inactive) | > 30 µM (inactive) | 2.32 µM (active) | > 30 µM (inactive) | > 30 µM (inactive) | > 30 µM (inactive) | > 30 µM (inactive)
CCS(=O)(=O)N1CC(CC#N)(n2cc(-c3ncnc4[nH]ccc34)cn2)C1 [BARICITINIB] | > 30 µM (inactive) | > 30 µM (inactive) | > 30 µM (inactive) | > 30 µM (inactive) | > 30 µM (inactive) | > 30 µM (inactive) | > 30 µM (inactive) | 1.89 µM (active) | > 30 µM (inactive) | > 30 µM (inactive) | > 30 µM (inactive) | 3.6 µM (active) | > 30 µM (inactive) | > 30 µM (inactive) | > 30 µM (inactive)
Cc1c(F)cc(C(=O)NC2CC2)cc1-c1ccc(C(=O)NCC(C)(C)C)cn1 [LOSMAPIMOD] | > 30 µM (inactive) | > 30 µM (inactive) | > 30 µM (inactive) | > 30 µM (inactive) | > 30 µM (inactive) | > 30 µM (inactive) | > 30 µM (inactive) | > 30 µM (inactive) | > 30 µM (inactive) | > 30 µM (inactive) | > 30 µM (inactive) | > 30 µM (inactive) | > 30 µM (inactive) | > 30 µM (inactive) | > 30 µM (inactive)
